This assay has as its system P388 leukemia ip, CD2F1 mice, survival T/C. In words: NCI In Vivo Anticancer Drug Screen. Data for tumor model P388 Leukemia (intraperitoneal) in CD2F1 (CDF1) mice. To be noted: endpoint: median survival time, higher = longer survival. An outline of the steps:
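Mice carrying the transplanted tumor received test compound or vehicle. Survival was recorded in each group, and the value is the treated-group measurement divided by that of the vehicle-treated control group.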

The mark [1] stands for this setting: dose: 60.0 mg/kg/injection, schedule: Q01DX005 (ip), vehicle: saline with Tween-80.
Setting [2] is: dose: 120.0 mg/kg/injection, schedule: Q01DX005 (ip), vehicle: saline with Tween-80.
[3] abbreviates: dose: 50.0 mg/kg/injection, schedule: Q01DX005 (ip), vehicle: saline with Tween-80.
[4] abbreviates: dose: 100.0 mg/kg/injection, schedule: Q01DX005 (ip), vehicle: saline with Tween-80.
Setting [5] is: dose: 50.0 mg/kg/injection, schedule: Q01DX005 (ip), vehicle: Klucel (hydroxypropylcellulose) (HPC).
Where [6] appears, read: dose: 100.0 mg/kg/injection, schedule: Q01DX005 (ip), vehicle: Klucel (hydroxypropylcellulose) (HPC).
[7] abbreviates: dose: 200.0 mg/kg/injection, schedule: Q01DX005 (ip), vehicle: Klucel (hydroxypropylcellulose) (HPC).
Setting [8] is: dose: 60.0 mg/kg/injection, schedule: Q01DX005 (ip), vehicle: Klucel (hydroxypropylcellulose) (HPC).
Where [9] appears, read: dose: 120.0 mg/kg/injection, schedule: Q01DX005 (ip), vehicle: Klucel (hydroxypropylcellulose) (HPC).
Where [10] appears, read: dose: 240.0 mg/kg/injection, schedule: Q01DX005 (ip), vehicle: Klucel (hydroxypropylcellulose) (HPC).
The mark [11] stands for this setting: dose: 50.0 mg/kg/injection, schedule: Q01DX009 (ip), vehicle: saline with Tween-80.

Where “and” joins values, the source holds several entries; their conditions need not be identical. Equal values may be shown once. Inconclusive results and toxic doses are left out.

Take `Cc1nc(N)nc(N)c1-c1ccc(Cl)c(Cl)c1`: the T/C by setting is: (dose: 1.0 mg/kg/injection, schedule: Q01DX009 (ip), vehicle: saline) 109 % of control; (dose: 2.0 mg/kg/injection, schedule: Q01DX009 (ip), vehicle: saline) 123 % of control; (dose: 3.0 mg/kg/injection, schedule: Q01DX009 (ip), vehicle: saline with Tween-80) 163 % of control; (dose: 4.0 mg/kg/injection, schedule: Q01DX009 (ip), vehicle: saline) 98 % of control; (dose: 4.0 mg/kg/injection, schedule: Q04DX002 (ip), vehicle: saline with Tween-80) 104 % of control; (dose: 6.0 mg/kg/injection, schedule: Q01DX009 (ip), vehicle: saline with Tween-80) 86 % of control. The T/C (dose: 6.0 mg/kg/injection, schedule: Q04DX002 (ip), vehicle: saline with Tween-80) is 104 % of control; the T/C (dose: 6.25 mg/kg/injection, schedule: Q04DX003 (ip), vehicle: saline with Tween-80) was 120 % of control; the T/C (dose: 8.0 mg/kg/injection, schedule: Q01DX009 (ip), vehicle: saline) was 98 % of control; the T/C (dose: 8.0 mg/kg/injection, schedule: Q04DX002 (ip), vehicle: saline with Tween-80) is 99 % of control; the T/C (dose: 10.0 mg/kg/injection, schedule: Q04DX002 (ip), vehicle: saline with Tween-80) was 107 % of control; the T/C (dose: 12.0 mg/kg/injection, schedule: Q04DX002 (ip), vehicle: saline with Tween-80) is 123 % of control. The T/C is 99 % of control (dose: 20.0 mg/kg/injection, schedule: Q04DX002 (ip), vehicle: saline); 155 % of control (dose: 25.0 mg/kg/injection, schedule: Q04DX003 (ip), vehicle: saline with Tween-80); 107 % of control (dose: 30.0 mg/kg/injection, schedule: Q04DX002 (ip), vehicle: saline); 119 % of control (dose: 40.0 mg/kg/injection, schedule: Q04DX002 (ip), vehicle: saline).

With `Cn1cnc2cc(N3CCOCC3)c([N+](=O)[O-])cc2c1=O`, the T/C reads like this: (dose: 100.0 mg/kg/injection, schedule: Q04DX003 (ip), vehicle: Klucel (hydroxypropylcellulose) (HPC)) 105 % of control; (dose: 200.0 mg/kg/injection, schedule: Q04DX003 (ip), vehicle: Klucel (hydroxypropylcellulose) (HPC)) 112 % of control; (dose: 400.0 mg/kg/injection, schedule: Q04DX003 (ip), vehicle: Klucel (hydroxypropylcellulose) (HPC)) 95 % of control.

As to `Cc1[nH]c(=O)n(C(C)C)c(=O)c1Br`, the T/C (dose: 100.0 mg/kg/injection, schedule: Q01DX001 (ip), vehicle: saline sonified) was 100 % of control; the T/C (dose: 200.0 mg/kg/injection, schedule: Q01DX001 (ip), vehicle: saline sonified) is 100 % of control; the T/C (dose: 400.0 mg/kg/injection, schedule: Q01DX001 (ip), vehicle: saline sonified) was 100 % of control.

In the case of `CCc1c(O)sc2c(c1=O)C(=NCC(C)C)CC(C)(C)N2`, the T/C is 86 % of control (dose: 50.0 mg/kg/injection, schedule: Q01DX005 (ip), vehicle: saline); 94 % of control (dose: 100.0 mg/kg/injection, schedule: Q01DX005 (ip), vehicle: saline); 97 % of control (dose: 200.0 mg/kg/injection, schedule: Q01DX005 (ip), vehicle: saline).

Turning to `CC(C)=CC1OC2CC3(C)C4=C(CCC3(C)C2C(C)C1O)C1(C)CCC(O)C(C)(C)C1CC4` (centres undefined), the T/C by setting is: (dose: 15.0 mg/kg/injection, schedule: Q01DX009 (ip), vehicle: saline) 98 % of control; (dose: 30.0 mg/kg/injection, schedule: Q01DX009 (ip), vehicle: saline) 102 % of control; (dose: 60.0 mg/kg/injection, schedule: Q01DX009 (ip), vehicle: saline) 100 % of control.

Turning to `NNC(=O)c1cnn(-c2ccccc2)c1N`, the T/C was 99 % of control (dose: 15.0 mg/kg/injection, schedule: Q01DX005 (ip), vehicle: saline with Tween-80); 93 % of control (dose: 30.0 mg/kg/injection, schedule: Q01DX005 (ip), vehicle: saline with Tween-80); 99 % of control and 94 % of control under setting [1].

On to `CCc1cccc(C)c1NC(=O)/C(Cl)=C(\Cl)C(=O)O`, for which the T/C reads like this: under setting [1], 104 % of control; under setting [2], 106 % of control.

Regarding `CCO/C=N/NC(=O)c1n[nH]c2ccccc12`, the T/C was 106 % of control under setting [3]; 100 % of control under setting [4]; 106 % of control (dose: 200.0 mg/kg/injection, schedule: Q01DX005 (ip), vehicle: saline with Tween-80).

Regarding `CCNC(=O)OCc1cnc(C)c(O)c1COC(=O)NCC`, the T/C (dose: 25.0 mg/kg/injection, schedule: Q01DX005 (ip), vehicle: saline with Tween-80) was 102 % of control; the T/C under setting [3] is 100 % of control; the T/C under setting [4] is 99 % of control.

In the case of `C=CCn1c(-c2ccccn2)n[nH]c1=S`, the T/C is 102 % of control under setting [1]; 101 % of control under setting [2]; 100 % of control (dose: 240.0 mg/kg/injection, schedule: Q01DX005 (ip), vehicle: saline with Tween-80).

For `CNc1[nH]c(=O)[nH]c(=O)c1[N+](=O)[O-]`, the T/C was 100 % of control (dose: 12.5 mg/kg/injection, schedule: Q01DX005 (ip), vehicle: Klucel (hydroxypropylcellulose) (HPC)); 105 % of control (dose: 25.0 mg/kg/injection, schedule: Q01DX005 (ip), vehicle: Klucel (hydroxypropylcellulose) (HPC)); 105 % of control and 112 % of control under setting [5].

On to `COc1ccc(C(CC(=O)N(CCCl)CCCl)CC(=O)N(CCCl)CCCl)cc1`, for which the T/C (dose: 100.0 mg/kg/injection, schedule: Q01DX001 (ip), vehicle: suspension in saline) was 108 % of control and the T/C (dose: 200.0 mg/kg/injection, schedule: Q01DX001 (ip), vehicle: suspension in saline) is 119 % of control.

As for `COC(=O)c1ccc(=O)c2nc3/c(=C/O)c(O)cc(=O)c3[nH]c12`, the T/C was 95 % of control (dose: 0.15 mg/kg/injection, schedule: Q04DX003 (ip), vehicle: saline); 90 % of control (dose: 0.3 mg/kg/injection, schedule: Q01DX009 (ip), vehicle: saline with Tween-80); 100 % of control (dose: 0.3 mg/kg/injection, schedule: Q04DX003 (ip), vehicle: saline); 109 % of control (dose: 0.6 mg/kg/injection, schedule: Q04DX003 (ip), vehicle: saline).

Regarding `CN(C)CCOC(=O)C1CC2(C1)CC(C(=O)OCCN(C)C)C2` (centres undefined), the T/C under setting [5] is 95 % of control, the T/C under setting [6] is 97 % of control and the T/C under setting [7] is 103 % of control.

With `Nc1ccccc1Nc1c([N+](=O)[O-])cc(C(F)(F)F)cc1[N+](=O)[O-]`, the T/C runs as follows: under setting [8], 103 % of control; under setting [9], 105 % of control; under setting [10], 90 % of control.

Turning to `Clc1ccc(C(c2ccc(Cl)cc2)C(Cl)(Cl)Cl)cc1`, the T/C was 105 % of control (dose: 1.56 mg/kg/injection, schedule: Q01DX009 (ip), vehicle: saline with Tween-80); 98 % of control (dose: 3.12 mg/kg/injection, schedule: Q01DX009 (ip), vehicle: saline with Tween-80); 100 % of control (dose: 6.25 mg/kg/injection, schedule: Q01DX009 (ip), vehicle: saline with Tween-80); 98 % of control (dose: 12.5 mg/kg/injection, schedule: Q01DX009 (ip), vehicle: saline with Tween-80); 99 % of control under setting [11].

With `c1cc2c3c(c1)CCC3CCC2` (centres undefined), the T/C reads like this: under setting [11], 112 % of control; (dose: 100.0 mg/kg/injection, schedule: Q01DX009 (ip), vehicle: saline with Tween-80) 109 % of control and 117 % of control; (dose: 200.0 mg/kg/injection, schedule: Q01DX009 (ip), vehicle: saline with Tween-80) 118 % of control.

Turning to `O=C(OC1CCC2(CC1)SCCS2)c1ccccc1`, the T/C (dose: 100.0 mg/kg/injection, schedule: Q04DX003 (ip), vehicle: saline with Tween-80) was 100 % of control; the T/C (dose: 200.0 mg/kg/injection, schedule: Q04DX003 (ip), vehicle: saline with Tween-80) was 100 % of control; the T/C (dose: 400.0 mg/kg/injection, schedule: Q04DX003 (ip), vehicle: saline with Tween-80) is 104 % of control.

On to `C/C=C/C=C/C(=O)CCC1(C)OC(=O)C(C)=C1O` (centres undefined), for which the T/C under setting [5] is 96 % of control, the T/C under setting [6] was 113 % of control and the T/C under setting [7] was 93 % of control.

On to `CC(C)CC1N=C(NN=C(CCl)CCl)SP1(=O)NNc1ncccn1` (centres undefined), for which the T/C reads like this: under setting [8], 100 % of control; under setting [9], 100 % of control; under setting [10], 113 % of control.
